Experimental data as given in patent publication US20180221306A1, “PHARMACEUTICAL COMPOSITIONS OF 5-HYDROXY-2-METHYLNAPHTHALENE-1,4-DIONE” (PellFiCure Pharmaceuticals, Inc., priority 2016, published 2018).

Experiment: Forced degradation: stability of Compound I formulations in selected solvents and Carrier A (HPLC)
[1] = EtOH, 25° C./60% RH, t = 2 week

## CC1=CC(=O)c2c(O)cccc2C1=O [Compound I, 5-hydroxy-2-methylnaphthalene-1,4-dione]
Carrier A (SR: super refined grade), t = 0, reported from a representative standard
  Stability of the formulation in Carrier A (sesame oil), Purity: 99.7 Area - %
DCM, 25° C./60% RH, t = 0
  Solution Stability in Selected Solvents, Purity: 92.84 % Area
DCM, 25° C./60% RH, t = 1 week
  Solution Stability in Selected Solvents, Purity: 93.85 % Area
DCM, 25° C./60% RH, t = 2 week
  Solution Stability in Selected Solvents, Purity: 92.99 % Area
DCM, 40° C./75% RH, t = 1 week
  Solution Stability in Selected Solvents, Purity: 91.88 % Area
DCM, 40° C./75% RH, t = 2 week
  Solution Stability in Selected Solvents, Purity: 81.23 % Area
DMSO, 25° C./60% RH, t = 0
  Solution Stability in Selected Solvents, Purity: 94.08 % Area
DMSO, 25° C./60% RH, t = 1 week
  Solution Stability in Selected Solvents, Purity: 93.47 % Area
DMSO, 25° C./60% RH, t = 2 week
  Solution Stability in Selected Solvents, Purity: 92.47 % Area
DMSO, 40° C./75% RH, t = 1 week
  Solution Stability in Selected Solvents, Purity: 89.28 % Area
DMSO, 40° C./75% RH, t = 2 week
  Solution Stability in Selected Solvents, Purity: 89.26 % Area
Diluent, 25° C./60% RH, t = 0
  Solution Stability in Selected Solvents, Purity: 99.77 % Area
Diluent, 25° C./60% RH, t = 1 week
  Solution Stability in Selected Solvents, Purity: 99.76 % Area
Diluent, 25° C./60% RH, t = 2 week
  Solution Stability in Selected Solvents, Purity: 99.79 % Area
Diluent, 40° C./75% RH, t = 1 week
  Solution Stability in Selected Solvents, Purity: 99.81 % Area
Diluent, 40° C./75% RH, t = 2 week
  Solution Stability in Selected Solvents, Purity: 99.82 % Area
EA (poor chromatography observed with ethyl acetate), 25° C./60% RH, t = 0
  Solution Stability in Selected Solvents, Purity: 80.16 % Area
EA (poor chromatography), 25° C./60% RH, t = 1 week
  Solution Stability in Selected Solvents, Purity: 77.38 % Area
EA (poor chromatography), 25° C./60% RH, t = 2 week
  Solution Stability in Selected Solvents, Purity: 76.03 % Area
EA (poor chromatography), 40° C./75% RH, t = 1 week
  Solution Stability in Selected Solvents, Purity: 77.28 % Area
EA (poor chromatography), 40° C./75% RH, t = 2 week
  Solution Stability in Selected Solvents, Purity: 77.13 % Area
EtOH, 25° C./60% RH, t = 0
  Solution Stability in Selected Solvents, Purity: 99.37 % Area
EtOH, 25° C./60% RH, t = 1 week
  Solution Stability in Selected Solvents, Purity: 96.08 % Area
[1]
  Solution Stability in Selected Solvents, % Potency: 93.35%
  Solution Stability in Selected Solvents, Purity: 92.82 % Area
EtOH, 40° C./75% RH, t = 1 week
  Solution Stability in Selected Solvents, Purity: 91.99 % Area
EtOH, 40° C./75% RH, t = 2 week
  Solution Stability in Selected Solvents, Purity: 89.39 % Area
IPA, 25° C./60% RH, t = 0
  Solution Stability in Selected Solvents, Purity: 98.80 % Area
IPA, 25° C./60% RH, t = 1 week
  Solution Stability in Selected Solvents, Purity: 95.62 % Area
IPA, 25° C./60% RH, t = 2 week
  Solution Stability in Selected Solvents, Purity: 93.35 % Area
IPA, 40° C./75% RH, t = 1 week
  Solution Stability in Selected Solvents, Purity: 91.10 % Area
IPA, 40° C./75% RH, t = 2 week
  Solution Stability in Selected Solvents, Purity: 89.40 % Area
MeOH, 25° C./60% RH, t = 0
  Solution Stability in Selected Solvents, Purity: 99.32 % Area
MeOH, 25° C./60% RH, t = 1 week
  Solution Stability in Selected Solvents, Purity: 95.54 % Area
MeOH, 25° C./60% RH, t = 2 week
  Solution Stability in Selected Solvents, Purity: 88.79 % Area
MeOH, 40° C./75% RH, t = 1 week
  Solution Stability in Selected Solvents, Purity: 86.56 % Area
MeOH, 40° C./75% RH, t = 2 week
  Solution Stability in Selected Solvents, Purity: 83.85 % Area
PEG 300, 25° C./60% RH, t = 0
  Solution Stability in Selected Solvents, Purity: 98.52 % Area
PEG 300, 25° C./60% RH, t = 1 week
  Solution Stability in Selected Solvents, Purity: 88.59 % Area
PEG 300, 25° C./60% RH, t = 2 week
  Solution Stability in Selected Solvents, Purity: 80.73 % Area
PEG 300, 40° C./75% RH, t = 1 week
  Solution Stability in Selected Solvents, Purity: 65.16 % Area
PEG 300, 40° C./75% RH, t = 2 week
  Solution Stability in Selected Solvents, Purity: 49.31 % Area
PEG 400, 25° C./60% RH, t = 0
  Solution Stability in Selected Solvents, Purity: 98.33 % Area
PEG 400, 25° C./60% RH, t = 1 week
  Solution Stability in Selected Solvents, Purity: 88.42 % Area
PEG 400, 25° C./60% RH, t = 2 week
  Solution Stability in Selected Solvents, Purity: 81.00 % Area
PEG 400, 40° C./75% RH, t = 1 week
  Solution Stability in Selected Solvents, Purity: 70.08 % Area
PEG 400, 40° C./75% RH, t = 2 week
  Solution Stability in Selected Solvents, Purity: 49.07 % Area
PG, 25° C./60% RH, t = 0
  Solution Stability in Selected Solvents, Purity: 99.65 % Area
PG, 25° C./60% RH, t = 1 week
  Solution Stability in Selected Solvents, Purity: 99.14 % Area
PG, 25° C./60% RH, t = 2 week
  Solution Stability in Selected Solvents, Purity: 97.81 % Area
PG, 40° C./75% RH, t = 1 week
  Solution Stability in Selected Solvents, Purity: 97.49 % Area
PG, 40° C./75% RH, t = 2 week
  Solution Stability in Selected Solvents, Purity: 96.43 % Area
THF, 25° C./60% RH, t = 0
  Solution Stability in Selected Solvents, Purity: 96.45 % Area
THF, 25° C./60% RH, t = 1 week
  Solution Stability in Selected Solvents, Purity: 94.19 % Area
THF, 25° C./60% RH, t = 2 week
  Solution Stability in Selected Solvents, Purity: 91.24 % Area
THF, 40° C./75% RH, t = 1 week
  Solution Stability in Selected Solvents, Purity: 92.54 % Area
THF, 40° C./75% RH, t = 2 week
  Solution Stability in Selected Solvents, % Potency: 99.82%
  Solution Stability in Selected Solvents, Purity: 89.34 % Area
Tween-20 or Tween-80 surfactant formulations
  Compound I lost: ≥ 50%
